Assay results as given in publication PMC5354766, “The expression of Nectin-4 on the surface of ovarian cancer cells alters their ability to adhere, migrate, aggregate, and proliferate” (Oncotarget, 2016).
Where no end group is shown, it is not given here.

What was measured:
NIH:OVCAR5 cells [1] = test: Wound healing (cell migration) assay after mitomycin C treatment; assay type: cell-based, human; details: 25 μg/ml mitomycin C for 3 h
Description: Cells were diluted to a concentration of 700,000-10^6 cells/ml in complete media, and 70 μl was plated into each chamber (0.22 cm^2 growth area) of an ibidi® wound-healing culture-insert (ibidi® Verona, WI) in triplicate in a 100 × 20 mm dish (Corning, Falcon, Corning NY). Cells were grown overnight at 37°C in a humidified incubator with 5% CO2 or until the chambers were confluent, prior to removal of the culture insert. Migrating cells were incubated in OptiMEM® containing 10 μM lysophosphatidic acid (LPA Cayman Chemical, Ann Arbor, MI) and photographed initially (t = 0 h), and then up to 48 h with a 4X objective. Image analysis was performed using ImageJ software with the Scratch Assay Analyzer from the MiToBo plug in. Three independent experiments were performed on each cell line.
(§1) Mitomycin C (Sigma-Aldrich, M287) was reconstituted at 0.4 mg/ml in PBS, pH 7.4, according to the supplier's instructions. Prior to spheroid assays, adherent NIH:OVCAR5 cells were pretreated for 3 hours at 37°C, in a tissue culture flask 10 μg/ml mitomycin C diluted in complete RPMI media. Flasks were rinsed with PBS and cells were detached as described for the spheroid assay. For migration assays, cells were plated in ibidi® wound-healing culture-insert incubated overnight, then the media was removed from the culture inserts and replaced with 25 μg/ml mitomycin C in complete RPMI. After 3 hours at 37°C, the culture inserts were removed and the cells were washed with PBS and cell migration was measured as described above.

NIH:OVCAR5 cells [2] = test: Spheroid formation after mitomycin C treatment; assay type: cell-based, human; details: 10 μg/ml mitomycin C for 3 h, spheroids after 24 h
Description: Spheroids were formed from the cell lines described above using the liquid overlay method. One milliliter of a single cell suspension was seeded at a concentration of 50,000 cells/ml in complete media, into 24-well tissue culture plates coated with 0.5% Seakem agarose (in complete media). Plates were incubated at 37°C in a humidified incubator with 5% CO2. At various time points up to 5 days, the plates were removed from the incubator and the spheroids were photographed with a Nikon CoolPix digital camera mounted on an Olympus CK2 inverted microscope with a 4X objective. The size of the spheroids was determined using the measure tool in Adobe Photoshop. The largest spheroids were quantified (20-90 spheroids/well) in a minimum of 8 wells, for a total of >300 spheroids per cell type.
as §1

[3] = tested on: NIH:OVCAR5-N4-over cells adhering to recombinant human Nectin-1 extracellular domain; details: 1 h
[4] = tested on: NIH:OVCAR5-N4-over cells adhering to recombinant human Nectin-1 extracellular domain; test: Peptide screen in the cell adhesion assay at 150 μg/ml; assay type: cell-based; details: peptide 0.15 mg/ml; 0.5 μg/well Nectin-1 (R&D Systems); relative to DMSO control; Figure 4A
Description: Black, clear-bottom 96-well microtiter plates (Corning, Imported Costar, Corning, NY) were coated with various concentrations of recombinant human Nectin-1 extracellular domain (R&D Systems or Acrobiosystems, Newark, DE), recombinant human Nectin-4 extracellular domain (R&D Systems), or bovine serum albumin (BSA; Probumin Diagnostic Grade, MilliPore) diluted in PBS. Covered plates were incubated overnight at 37°C in a humidified incubator. After washing with PBS plus Ca^2+/Mg^2+ containing 2 mg/ml ovalbumin (Sigma-Aldrich), the plates were blocked for 1 h at 37°C with 1% BSA in PBS without Ca^2+/Mg^2+. Confluent monolayers of NIH:OVCAR5 cells or NIH:OVCAR5-N4-over cells were detached with Accutase, and then filtered through a 40 μm cell strainer (BD Biosciences, San Jose, CA) to remove cell aggregates. The single cells were stained with CellTracker Green CMFDA (5-chloromethylfluorescein diacetate; Invitrogen™) according to the manufacturer's protocol. After washing the plate, 30,000 cells were added to each well in 50 μl of RPMI 1640 media containing 2 mg/ml ovalbumin and allowed to adhere for 15-60 min at 37°C. Plates were vigorously washed four times and read in a BioTek Synergy fluorescent microplate reader (BioTek, Winooski, VA). Experiments were conducted in triplicate.
Microtiter plates coated with 0.5 μg/well recombinant human Nectin-1 extracellular domain (R&D Systems) as described above were pre-incubated for 30 min at room temperature with 150 μg/ml Nectin-4 peptides in PBS in triplicate. CMFDA-stained NIH:OVCAR5-N4-over cells were then added to the wells and cell adhesion was quantified after a 30 min incubation as described above. In parallel studies, CMFDA-stained NIH:OVCAR5-N4-over cells were pre-incubated for 30 min at room temperature with 150 μg/ml Nectin-1 peptides in PBS in triplicate, and then the cells and peptides were added to the 96-well plate followed by a 30 min incubation. […] Dose curves were conducted as described above, except the microtiter plates were coated with 0.25 μg/well recombinant human Nectin-1 extracellular domain (Acrobiosystems), and the peptides and scrambled controls were diluted from 0.01-200 μg/ml.

Compound | IC50 (mg/ml), inhibition of binding of OVCAR5-N4-over cells to recombinant Nectin-1 [3] [mg/mL] | Promotion of cell adhesion [4] [fold] | other results
CO[C@@]12[C@H](COC(N)=O)C3=C(C(=O)C(C)=C(N)C3=O)N1C[C@@H]1N[C@@H]12 [mitomycin C] | – | – | Effect on migration in wound healing assay (NIH:OVCAR5 cells [1]; NIH:OVCAR5 cells that over-express Nectin-4, 24 h): almost completely inhibited migration; Exposed wound area covered by migrating cells in 24 h (NIH:OVCAR5 cells [1]; NIH:OVCAR5 control cells, untreated cells completely closed the wound): 50%; Migration (wound area covered) in 24 h (NIH:OVCAR5 cells [1]; Nectin-4 knock-down cells N4-KD-VB3, untreated cells 25%): 16%; Spheroid size with vs without treatment (NIH:OVCAR5 cells [2]; NIH:OVCAR5-N4-KD cells): essentially unchanged; Spheroid size with vs without treatment (NIH:OVCAR5 cells [2]; NIH:OVCAR5-N4-over cells): essentially unchanged; Spheroid size with vs without treatment (NIH:OVCAR5 cells [2]; NIH:OVCAR5 control cells): somewhat smaller
ACIVNYHMDRFKES-NH2 [N1-P17] | 0.006 | – | –
CLSEGQPPPSYNWT [N4-P21, Synthetic peptide from Nectin-4 extracellular domain, IgC2] | – | ~1.5 | –
LWHIGREGAMLKCL [N4-P20, Synthetic peptide from Nectin-4 extracellular domain, IgC2] | – | ~1.5 | –
NWYLQRMDVKLTCK-NH2 [N1-P20] | 0.018 | – | –
QRITHILHVSFLAE-NH2 [N4-P18] | 0.041 | – | –
RVDGDTLGFPPLTT [N4-P23, Synthetic peptide from Nectin-4 extracellular domain, IgC2] | – | ~1.5 | –
TTEHSGIYVCHVSN [N4-P24, Synthetic peptide from Nectin-4 extracellular domain, IgC2] | – | ~1.5 | –
WTRLDGPLPSGVRV-NH2 [N4-P22] | 0.028 | – | –
